Where two headings read alike, the source gives them in different places.
Columns and labels:
Type in all cases: cell-based, human
[1] = test system: central nervous system cell line SF-295; assay: In vitro cytotoxic activity, CELLTITER 96 AQueous One Solution (MTS) assay, SF-295; conditions: 72 h treatment, mean ± SD of 3 replicates, read-out: IC50 cytotoxicity, SF-295
Method: (§1) The in vitro cytotoxic activity (IC50, half maximal inhibitory concentration) of the tiancimycins was tested against selected human cancer cell lines, such as breast cancer cells MDA-MB-468, melanoma cell M14 and SK-MEL-5, non-small cell lung cancer cell NCI-H226, central nervous system cell lines SF-295 and SF-539, and the known enediyne UCM was used as a comparison. Suspended cultures of cells were diluted to a concentration of 5×10^4 cells mL^−1 in RPMI 1640 medium supplemented with 10% fetal bovine serum, 100 μgmL^−1 streptomycin, and 100 UmL^−1 penicillin. The suspended cultures were dispensed into 96-well microtiter plates (100 μL per well) and the plates were incubated for 24 hours at 37° C. in an atmosphere of 5% CO2, 95% air, and 100% humidity. After incubation, original medium was removed and 100 μL of fresh medium was added, followed by adding serial dilutions of the tiancimycins (A, B, and C, 1 μl) and UCM (1 μl) in DMSO. The concentration of the tested compounds was ranged from 0 to 100 nM. Plates were incubated under the above conditions for 72 hours. After incubation, 20 μl CELLTITER 96® AQueous One Solution Reagent (Promega Corp, Madison, Wis., USA) was added to the plates and incubated at 37° C. in a humidified, 5% CO2 atmosphere for 30 to 60 min. The absorbance at 490 nm was recorded using an ELISA plate reader. Each point represents the mean±SD of 3 replicates. The IC50 was determined by computerized curve fitting.
(§2) Antitumor activities were assessed using CELLTITER 96® Aqueous One Solution Proliferation Assay (MTS) (Promega Corp.). Cells were plated in 96-well plate at 5000 cells/well and allowed to adhere overnight at 37° C. in a humidified atmosphere of 5% CO2. Medium was then removed and replaced by fresh culture medium containing different concentrations of different drugs. The cells were treated for 72 h before the assay was developed. All assay values were measured in triplicate.

[2] = test system: central nervous system cell line SF-539; assay: In vitro cytotoxic activity, CELLTITER 96 AQueous One Solution (MTS) assay, SF-539; conditions: 72 h treatment, mean ± SD of 3 replicates, read-out: IC50 cytotoxicity, SF-539
Method: as §1, §2

[3] = test system: non-small cell lung cancer cell NCI-H226; assay: In vitro cytotoxic activity, CELLTITER 96 AQueous One Solution (MTS) assay, NCI-H226; conditions: 72 h treatment, mean ± SD of 3 replicates, read-out: IC50 cytotoxicity, NCI-H226
Method: as §1, §2

[4] = test system: breast cancer cells MDA-MB-468; assay: In vitro cytotoxic activity, CELLTITER 96 AQueous One Solution (MTS) assay, MDA-MB-468; conditions: 72 h treatment, mean ± SD of 3 replicates, read-out: IC50 cytotoxicity, MDA-MB-468
Method: as §1, §2

[5] = test system: melanoma cell M14; assay: In vitro cytotoxic activity, CELLTITER 96 AQueous One Solution (MTS) assay, M14; conditions: 72 h treatment, mean ± SD of 3 replicates, read-out: IC50 cytotoxicity, M14
Method: as §1, §2

[6] = test system: melanoma cell SK-MEL-5; assay: In vitro cytotoxic activity, CELLTITER 96 AQueous One Solution (MTS) assay, SK-MEL-5; conditions: 72 h treatment, mean ± SD of 3 replicates, read-out: IC50 cytotoxicity, SK-MEL-5
Method: as §1, §2

For `COc1ccc2c(c1O)C(=O)c1c3c(cc(O)c1C2=O)C12O[C@@]1([C@@H](C)O)[C@H](C#C/C=C\C#C[C@H]2O)N3` [TNM A, tiancimycin A], the IC50 ([1]; Homo sapiens) was 0.14 ± 0.01 nM, the IC50 ([2]; Homo sapiens) was 0.3 ± 0.08 nM and the IC50 ([3]; Homo sapiens) was 2.3 ± 0.1 nM. The IC50 ([4]; Homo sapiens) was 0.1 ± 0.01 nM, the IC50 ([5]; Homo sapiens) was 0.14 ± 0.01 nM and the IC50 ([6]; Homo sapiens) was 0.19 ± 0.01 nM.

Compound `COC(=O)/C=C(\C)[C@@]12OC13c1cc(O)c4c(c1N[C@H]2C#C/C=C\C#C[C@H]3O)C(=O)c1ccccc1C4=O` [TNM B, tiancimycin B] has an IC50 ([1]; Homo sapiens) of 0.26 ± 0.02 nM, an IC50 ([2]; Homo sapiens) of 0.23 ± 0.05 nM and an IC50 ([3]; Homo sapiens) of 2.8 ± 0.1 nM. For the same compound, the IC50 ([4]; Homo sapiens) was 0.1 ± 0.01 nM, the IC50 ([5]; Homo sapiens) was 0.24 ± 0.01 nM and the IC50 ([6]; Homo sapiens) was 0.19 ± 0.04 nM.

In the case of `COC(=O)C(O)C(C)(O)[C@@]12OC13c1cc(O)c4c(c1N[C@H]2C#C/C=C\C#C[C@H]3O)C(=O)c1c(ccc(O)c1O)C4=O` (stereo partly drawn) [TNM C, tiancimycin C], the IC50 ([1]; Homo sapiens) is reported as 0.28 ± 0.02 nM, the IC50 ([2]; Homo sapiens) is reported as 0.3 ± 0.05 nM and the IC50 ([3]; Homo sapiens) is reported as 3.3 ± 0.3 nM. It also gave an IC50 ([4]; Homo sapiens) of 0.07 ± 0.01 nM, an IC50 ([5]; Homo sapiens) of 0.25 ± 0.01 nM and an IC50 ([6]; Homo sapiens) of 0.14 ± 0.02 nM.

`CC(O)[C@@]12O[C@]13c1cc(O)c4c(c1N[C@H]2C#C/C=C\C#C[C@H]3O)C(=O)c1ccccc1C4=O` (stereo partly drawn) [UCM, uncialamycin, reference compound] showed an IC50 [1] of 0.51 ± 0.05 nM, an IC50 [2] of 0.67 ± 0.03 nM and an IC50 [3] of 4.1 ± 0.2 nM. For the same compound, the IC50 [4] was 0.22 ± 0.03 nM, the IC50 [5] was 0.47 ± 0.07 nM and the IC50 [6] was 1.7 ± 0.1 nM.

Source: patent publication US10336766B2, “Anticancer drug candidates” (THE SCRIPPS RESEARCH INSTITUTE, priority 2015, dated 2019)
